Experimental data as given in US20040023884A1, “Biologically active peptides from functional domains of bactericidal/permeability-increasing protein and uses thereof” (priority 1993, published 2004).
Square brackets hold non-standard residues; d marks the D form. Ends that are not written are not given here. Peptide text beside a SMILES is read from it. 1Nal = N[C@@H](Cc1cccc2ccccc12)C(=O)O; 3Pal = N[C@@H](Cc1cccnc1)C(=O)O

How the values were obtained:
Candida albicans = type: cell-based
[1] = tested on: E. coli 0111:B4 (smooth) bacteria; assay: Radial diffusion bactericidal assay, E. coli 0111:B4; type: cell-based; conditions: radial diffusion; PROBIT analysis; E. coli O111:B4 (smooth)
Staphylococcus aureus = assay: Radial diffusion bactericidal assay, Staphylococcus aureus; type: cell-based; conditions: radial diffusion; PROBIT analysis; S. aureus
[2] = tested on: rough mutant E. coli J5 bacteria; assay: Radial diffusion bactericidal assay, E. coli J5; type: cell-based; conditions: radial diffusion; for pmol added to well to achieve a 30 mm^2 bactericidal zone, E. coli J5: PROBIT analysis, E. coli J5 (rough)
Procedure: BPI proteolytic fragments produced according to Example 1 were screened for bactericidal effects using rough mutant E. coli J5 bacteria in a radial diffusion assay. Specifically, an overnight culture of E. coli J5 was diluted 1:50 into fresh tryptic soy broth and incubated for 3 hours at 37° C. to attain log phase growth of the culture. Bacteria were then pelleted at 3,000 rpm for 5 minutes in a Sorvall RT6000B centrifuge (Sorvall Instruments, Newton, Conn.). 5 mL of 10 mM sodium phosphate buffer (pH 7.4) was added and the preparation was re-pelleted. […] The bacteria were diluted to 4×10^6 CFU/mL in 10 mL of molten underlayer agarose (at approximately 45° C.) and inverted repeatedly to mix in 15 mL polypropylene tubes conventionally used for this purpose.
The entire contents of such tubes were then poured into a level square petri dish and distributed evenly by rocking the dish side-to-side. […] A series of wells were then punched into the hardened agarose using a sterile 3 mm punch attached to a vacuum apparatus. The punch was sterilized with 100% alcohol and allowed to air dry prior to use to avoid contaminating the bacterial culture.
5 or 10 μL of each of the BPI fragments were carefully pipetted into each well. As a negative control, dilution buffer (pH 8.3) was added to a separate well, and rBPI23 at concentrations of 5 μg/mL and 1 μg/mL were also added as positive controls. Each plate was incubated at 37° C. for 3 hours, and then 10 mL of molten overlayer agarose (at approximately 45° C.) was added into the level petri dish, allowed to harden and incubated overnight at 37° C. […] The bacterial zones were measured with a micrometer.

[3] = 3H-heparin binding assay (affinity and capacity); conditions: for Heparin Capacity: heparin bound at saturation; for Kd: read-out: Heparin Affinity
Procedure: Briefly, each fragment was added to wells of a 96-well microtiter plate having a polyvinylidene difluoride membrane (Immunobilon-P, Millipore, Bedford, Mass.) disposed at the bottom of the wells. […] Positive control wells contained varying amounts of rBPI23. […] DuPont-NEN, Wilmington, Del.) were made in the blocking buffer and incubated in the BPI peptide-containing wells for one hour at 4° C. The unbound heparin was aspirated and the wells were washed three times with blocking buffer, dried and removed for quantitation in a liquid scintillation counter (Model 1217, LKB, Gaithersburg, Md.). Although BSA in the blocking buffer did show a low affinity and capacity to bind heparin, this was considered physiologically irrelevant and the background was routinely subtracted from the test compound signal.

CC(C)C[C@H](NC(=O)[C@H](Cc1ccccc1)NC(=O)[C@H](CCCNC(=N)N)NC(=O)[C@H](Cc1cccc2ccccc12)NC(=O)[C@H](Cc1cccc2ccccc12)NC(=O)[C@H](C)NC(=O)[C@H](CCCCN)NC(=O)[C@H](Cc1c[nH]c2ccccc12)NC(=O)[C@H](CCCCN)NC(=O)[C@H](CCCCN)NC(=O)[C@H](CC(C)C)NC(=O)[C@H](Cc1ccccc1)NC(=O)[C@H](CCCNC(=N)N)NC(=O)[C@H](Cc1cccc2ccccc12)NC(=O)[C@H](Cc1cccc2ccccc12)NC(=O)[C@H](C)NC(=O)[C@H](CCCCN)NC(=O)[C@H](Cc1c[nH]c2ccccc12)NC(=O)[C@@H](N)CCCCN)C(=O)N[C@@H](CCCCN)C(=O)O [BPI.156] (H-KWKA[1Nal][1Nal]RFLKKWKA[1Nal][1Nal]RFLK-OH; N-terminus and C-terminus assumed)
MIC C. alb (Candida albicans): >100.00 µg/mL

KSKVKALIQLFHKK [BPI.161]
pmol added to well to achieve a 30 mm^2 bactericidal zone, E. coli O111:B4 [1]: b (no detectable activity up to 5 μg/well)
pmol added to well to achieve a 30 mm^2 bactericidal zone, S. aureus (Staphylococcus aureus): 100,476.32 pmol
MIC C. alb (Candida albicans): 3.13 µg/mL
pmol added to well to achieve a 30 mm^2 bactericidal zone, E. coli J5 [2]: 1,201.79 pmol

CC(C)C[C@H](NC(=O)[C@H](Cc1ccccc1)NC(=O)[C@H](CCCNC(=N)N)NC(=O)[C@H](Cc1cccc2ccccc12)NC(=O)[C@H](Cc1cccc2ccccc12)NC(=O)[C@H](C)NC(=O)[C@H](CCCCN)NC(=O)[C@H](Cc1c[nH]c2ccccc12)NC(=O)[C@H](CCCCN)NC(=O)[C@H](CCCCN)NC(=O)[C@H](CC(C)C)NC(=O)[C@H](Cc1ccccc1)NC(=O)[C@H](CCCNC(=N)N)NC(=O)[C@H](CCCCN)NC(=O)[C@H](CCC(N)=O)NC(=O)[C@H](C)NC(=O)[C@H](CCCCN)NC(=O)[C@H](Cc1c[nH]c2ccccc12)NC(=O)[C@@H](N)CCCCN)C(=O)N[C@@H](CCCCN)C(=O)O [BPI.155] (H-KWKAQKRFLKKWKA[1Nal][1Nal]RFLK-OH; N-terminus and C-terminus assumed)
pmol added to well to achieve a 30 mm^2 bactericidal zone, E. coli O111:B4 [1]: 53,027,986.44 pmol
pmol added to well to achieve a 30 mm^2 bactericidal zone, S. aureus (Staphylococcus aureus): 5,530,185,440.73 pmol
MIC C. alb (Candida albicans): >100.00 µg/mL
pmol added to well to achieve a 30 mm^2 bactericidal zone, E. coli J5 [2]: 5,912.26 pmol

CIKISGKWKAQKRFLK [BPI.58]
pmol added to well to achieve a 30 mm^2 bactericidal zone, E. coli O111:B4 [1]: b (no detectable activity up to 5 μg/well)
pmol added to well to achieve a 30 mm^2 bactericidal zone, S. aureus (Staphylococcus aureus): b (no detectable activity up to 5 μg/well)
bactericidal activity (in words) ([2]; E. coli J5): highly bactericidal
pmol added to well to achieve a 30 mm^2 bactericidal zone, E. coli J5 [2]: 1,050.11 pmol
heparin binding capacity (in words) [3]: extremely high heparin capacity
Heparin Capacity [3]: 231.2 ng
Kd [3]: 194 nM

IKISGKWKAQKRAβ-(3-pyridyl)LK [BPI.72]
pmol added to well to achieve a 30 mm^2 bactericidal zone, E. coli O111:B4 [1]: b (no detectable activity up to 5 μg/well)
pmol added to well to achieve a 30 mm^2 bactericidal zone, S. aureus (Staphylococcus aureus): b (no detectable activity up to 5 μg/well)
pmol added to well to achieve a 30 mm^2 bactericidal zone, E. coli J5 [2]: 2,925.67 pmol
Heparin Capacity [3]: 102.8 ng
Kd [3]: 145 nM

IAISGKWKAQKRFLA [BPI.60]
pmol added to well to achieve a 30 mm^2 bactericidal zone, E. coli O111:B4 [1]: b (no detectable activity up to 5 μg/well)
pmol added to well to achieve a 30 mm^2 bactericidal zone, S. aureus (Staphylococcus aureus): b (no detectable activity up to 5 μg/well)
pmol added to well to achieve a 30 mm^2 bactericidal zone, E. coli J5 [2]: 3,782.80 pmol
Heparin Capacity [3]: 120.3 ng
Kd [3]: 64.8 nM

KWKAQWRFLKKWKAQWRFLKKWKAQWRFLK [BPI.99]
pmol added to well to achieve a 30 mm^2 bactericidal zone, E. coli O111:B4 [1]: 60,037.52 pmol
pmol added to well to achieve a 30 mm^2 bactericidal zone, S. aureus (Staphylococcus aureus): 37,942,676.00 pmol
pmol added to well to achieve a 30 mm^2 bactericidal zone, E. coli J5 [2]: 722.90 pmol
Heparin Capacity [3]: 971.4 ng
Kd [3]: 9100 nM

ADADIKISGICWKAQKRFLK [BPI.71]
pmol added to well to achieve a 30 mm^2 bactericidal zone, E. coli O111:B4 [1]: b (no detectable activity up to 5 μg/well)
pmol added to well to achieve a 30 mm^2 bactericidal zone, S. aureus (Staphylococcus aureus): b (no detectable activity up to 5 μg/well)
pmol added to well to achieve a 30 mm^2 bactericidal zone, E. coli J5 [2]: 2,296.94 pmol
Heparin Capacity [3]: 158.9 ng
Kd [3]: 75.6 nM

CC(C)C[C@H](NC(=O)[C@H](Cc1ccccc1)NC(=O)[C@H](CCCNC(=N)N)NC(=O)[C@H](CCCCN)NC(=O)[C@H](CCC(N)=O)NC(=O)[C@H](C)NC(=O)[C@H](CCCCN)NC(=O)[C@H](Cc1c[nH]c2ccccc12)NC(=O)[C@H](CCCCN)NC(=O)[C@H](CCCCN)NC(=O)[C@H](CC(C)C)NC(=O)[C@H](Cc1ccccc1)NC(=O)[C@H](CCCNC(=N)N)NC(=O)[C@H](Cc1cccc2ccccc12)NC(=O)[C@H](Cc1cccc2ccccc12)NC(=O)[C@H](C)NC(=O)[C@H](CCCCN)NC(=O)[C@H](Cc1c[nH]c2ccccc12)NC(=O)[C@@H](N)CCCCN)C(=O)N[C@@H](CCCCN)C(=O)O [BPI.154] (H-KWKA[1Nal][1Nal]RFLKKWKAQKRFLK-OH; N-terminus and C-terminus assumed)
pmol added to well to achieve a 30 mm^2 bactericidal zone, E. coli O111:B4 [1]: 2,977.76 pmol
pmol added to well to achieve a 30 mm^2 bactericidal zone, S. aureus (Staphylococcus aureus): 30,052,224.71 pmol
MIC C. alb (Candida albicans): >100.00 µg/mL
pmol added to well to achieve a 30 mm^2 bactericidal zone, E. coli J5 [2]: 197.00 pmol

IKKRAISFLGKKWQK [BPI.75]
pmol added to well to achieve a 30 mm^2 bactericidal zone, E. coli O111:B4 [1]: b (no detectable activity up to 5 μg/well)
pmol added to well to achieve a 30 mm^2 bactericidal zone, S. aureus (Staphylococcus aureus): 9,508.60 pmol
pmol added to well to achieve a 30 mm^2 bactericidal zone, E. coli J5 [2]: 2,708.40 pmol
Heparin Capacity [3]: 119.8 ng
Kd [3]: 96 nM

IKISGKWKAKKRFLK [BPI.79]
pmol added to well to achieve a 30 mm^2 bactericidal zone, E. coli O111:B4 [1]: b (no detectable activity up to 5 μg/well)
pmol added to well to achieve a 30 mm^2 bactericidal zone, S. aureus (Staphylococcus aureus): b (no detectable activity up to 5 μg/well)
pmol added to well to achieve a 30 mm^2 bactericidal zone, E. coli J5 [2]: 5,827.30 pmol
Heparin Capacity [3]: 110.2 ng
Kd [3]: 199 nM

IKISGKAβ-(3-pyridyl)KAQKRFLK (IKISGK[3Pal]KAQKRFLK) [BPI.70]
pmol added to well to achieve a 30 mm^2 bactericidal zone, E. coli O111:B4 [1]: b (no detectable activity up to 5 μg/well)
pmol added to well to achieve a 30 mm^2 bactericidal zone, S. aureus (Staphylococcus aureus): b (no detectable activity up to 5 μg/well)
pmol added to well to achieve a 30 mm^2 bactericidal zone, E. coli J5 [2]: b (no detectable activity up to 5 μg/well)
Heparin Capacity [3]: 59.2 ng
Kd [3]: 145 nM

QQGTAALQKELKRIK [BPI.1]
pmol added to well to achieve a 30 mm^2 bactericidal zone, E. coli O111:B4 [1]: b (no detectable activity up to 5 μg/well)
pmol added to well to achieve a 30 mm^2 bactericidal zone, S. aureus (Staphylococcus aureus): b (no detectable activity up to 5 μg/well)
pmol added to well to achieve a 30 mm^2 bactericidal zone, E. coli J5 [2]: b (no detectable activity up to 5 μg/well)
Heparin Affinity [3]: no binding
Heparin Capacity [3]: no binding

IKISGAWAAQKRFLK [BPI.59]
pmol added to well to achieve a 30 mm^2 bactericidal zone, E. coli O111:B4 [1]: b (no detectable activity up to 5 μg/well)
pmol added to well to achieve a 30 mm^2 bactericidal zone, S. aureus (Staphylococcus aureus): b (no detectable activity up to 5 μg/well)
pmol added to well to achieve a 30 mm^2 bactericidal zone, E. coli J5 [2]: 3,718.00 pmol
Heparin Capacity [3]: 106.7 ng
Kd [3]: 175 nM

KSKVKWLIKLFHKK [BPI.100]
pmol added to well to achieve a 30 mm^2 bactericidal zone, E. coli O111:B4 [1]: 7,342.90 pmol
pmol added to well to achieve a 30 mm^2 bactericidal zone, S. aureus (Staphylococcus aureus): b (no detectable activity up to 5 μg/well)
pmol added to well to achieve a 30 mm^2 bactericidal zone, E. coli J5 [2]: 407.74 pmol
Heparin Capacity [3]: 314.0 ng
Kd [3]: 2930 nM

CC[C@H](C)[C@H](N)C(=O)N[C@@H](CCCCN)C(=O)N[C@H](C(=O)N[C@@H](CO)C(=O)NCC(=O)N[C@@H](CCCCN)C(=O)N[C@@H](Cc1c[nH]c2ccccc12)C(=O)N[C@@H](CCCCN)C(=O)N[C@@H](C)C(=O)N[C@@H](Cc1cccc2ccccc12)C(=O)N[C@@H](Cc1cccc2ccccc12)C(=O)N[C@@H](CCCNC(=N)N)C(=O)N[C@@H](Cc1ccccc1)C(=O)N[C@@H](CC(C)C)C(=O)N[C@@H](CCCCN)C(=O)N[C@@H](CCCCN)C(=O)N[C@@H](CO)C(=O)N[C@@H](CCCCN)C(=O)N[C@H](C(=O)NCC(=O)N[C@@H](Cc1c[nH]c2ccccc12)C(=O)N[C@@H](CC(C)C)C(=O)N[C@H](C(=O)N[C@@H](CCC(N)=O)C(=O)N[C@@H](CC(C)C)C(=O)N[C@@H](Cc1ccccc1)C(=O)N[C@@H](Cc1c[nH]cn1)C(=O)N[C@@H](CCCCN)C(=O)N[C@@H](CCCCN)C(=O)O)[C@@H](C)CC)C(C)C)[C@@H](C)CC [BPI.158] (H-IKISGKWKA[1Nal][1Nal]RFLKKSKVGWLIQLFHKK-OH; N-terminus and C-terminus assumed)
MIC C. alb (Candida albicans): >100.00 µg/mL

IKISGKFKAQKRFLK [BPI.61]
pmol added to well to achieve a 30 mm^2 bactericidal zone, E. coli O111:B4 [1]: b (no detectable activity up to 5 μg/well)
pmol added to well to achieve a 30 mm^2 bactericidal zone, S. aureus (Staphylococcus aureus): b (no detectable activity up to 5 μg/well)
pmol added to well to achieve a 30 mm^2 bactericidal zone, E. coli J5 [2]: 86,541.00 pmol
Heparin Capacity [3]: 85.2 ng
Kd [3]: 58.3 nM
